In PubChem BioAssay (NCI):
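All cell lines were grown in 96-well plates and treated with compound for 48 hours. TGI marks complete inhibition of growth.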

Key:
Test in all cases: growth of human tumour cells (NCI), 48 h
A549 NSCLC = tested on: A549 NSCLC
ACHN renal = tested on: ACHN renal
CCRF-CEM leukemia = tested on: CCRF-CEM leukemia
EKVX NSCLC = tested on: EKVX NSCLC
HCT-116 colon = tested on: HCT-116 colon
HL-60(TB) leukemia = tested on: HL-60(TB) leukemia
HT29 colon = tested on: HT29 colon
IGROV1 ovarian = tested on: IGROV1 ovarian
LOX IMVI melanoma = tested on: LOX IMVI melanoma
MDA-N = tested on: MDA-N
NCI-H226 lung = tested on: NCI-H226 lung
OVCAR-8 ovarian = tested on: OVCAR-8 ovarian
PC-3 prostate = tested on: PC-3 prostate
RPMI-8226 leukemia = tested on: RPMI-8226 leukemia
RXF 393 renal = tested on: RXF 393 renal
SK-MEL-5 melanoma = tested on: SK-MEL-5 melanoma
SN12C renal = tested on: SN12C renal
T-47D breast = tested on: T-47D breast
TK-10 renal = tested on: TK-10 renal
U251 CNS = tested on: U251 CNS

With N=C(N)C1CN(CCCCCCCCCCN2CC(C(=N)N)C(=O)NC2=O)C(=O)NC1=O (stereo not given) as the compound, how does the TGI (A549 NSCLC) read?
Its TGI is over 10 µM.

And the TGI (ACHN renal)?
Its TGI is over 10 µM.

And the TGI (CCRF-CEM leukemia)?
The TGI was over 10 µM.

And the TGI (EKVX NSCLC)?
The TGI was over 10 µM.

And the TGI (HCT-116 colon)?
Its TGI is over 10 µM.

And the TGI (HL-60(TB) leukemia)?
Its TGI is over 10 µM.

What about the TGI (HT29 colon) of the same compound?
Its TGI is over 10 µM.

What about the TGI (IGROV1 ovarian) of the same compound?
Its TGI is over 10 µM.

What about the TGI (LOX IMVI melanoma) of the same compound?
Its TGI is over 10 µM.

And the TGI (MDA-N)?
Its TGI is over 10 µM.

What about the TGI (NCI-H226 lung) of the same compound?
The TGI was over 10 µM.

What about the TGI (OVCAR-8 ovarian) of the same compound?
The TGI was over 10 µM.

What about the TGI (PC-3 prostate) of the same compound?
The TGI was over 10 µM.

What about the TGI (RPMI-8226 leukemia) of the same compound?
Its TGI is over 10 µM.

What about the TGI (RXF 393 renal) of the same compound?
The TGI was over 10 µM.

What about the TGI (SK-MEL-5 melanoma) of the same compound?
Its TGI is over 10 µM.

What about the TGI (SN12C renal) of the same compound?
The TGI was over 10 µM.

And the TGI (T-47D breast)?
The TGI was over 10 µM.

What about the TGI (TK-10 renal) of the same compound?
Its TGI is over 10 µM.

And the TGI (U251 CNS)?
Its TGI is over 10 µM.

With O=[N+]([O-])c1c(F)c(F)c2c(c1F)Nc1ccccc1S2 as the compound, how does the TGI (A549 NSCLC) read?
The TGI was 36.9 µM.

What about the TGI (ACHN renal) of the same compound?
The TGI was 29.1 µM.

What about the TGI (CCRF-CEM leukemia) of the same compound?
Its TGI is 6.46 µM.

And the TGI (EKVX NSCLC)?
Its TGI is 16 µM.

What about the TGI (HCT-116 colon) of the same compound?
The TGI was 6.18 µM.

And the TGI (HL-60(TB) leukemia)?
Its TGI is 16.1 µM.

And the TGI (HT29 colon)?
The TGI was 3.63 µM.

What about the TGI (IGROV1 ovarian) of the same compound?
Its TGI is 8.64 µM.

And the TGI (LOX IMVI melanoma)?
Its TGI is 3.39 µM.

What about the TGI (MDA-N) of the same compound?
Its TGI is 14.5 µM.

What about the TGI (NCI-H226 lung) of the same compound?
The TGI was 35.2 µM.

What about the TGI (OVCAR-8 ovarian) of the same compound?
The TGI was 3.89 µM.

And the TGI (PC-3 prostate)?
The TGI was 22.4 µM.

What about the TGI (RPMI-8226 leukemia) of the same compound?
The TGI was 27.2 µM.

What about the TGI (RXF 393 renal) of the same compound?
The TGI was 8.88 µM.

And the TGI (SK-MEL-5 melanoma)?
The TGI was 23.8 µM.

What about the TGI (SN12C renal) of the same compound?
The TGI was 12.8 µM.

And the TGI (T-47D breast)?
Its TGI is 12.1 µM.

What about the TGI (TK-10 renal) of the same compound?
Its TGI is 38.4 µM.

What about the TGI (U251 CNS) of the same compound?
Its TGI is 3.9 µM.

With Fc1ccc(C(OCCN2CCN(CCCCl)CC2)c2ccc(F)cc2)cc1 as the compound, how does the TGI (A549 NSCLC) read?
The TGI was over 100 µM.

And the TGI (ACHN renal)?
The TGI was over 100 µM.

What about the TGI (CCRF-CEM leukemia) of the same compound?
The TGI was over 100 µM.

And the TGI (EKVX NSCLC)?
The TGI was over 100 µM.

What about the TGI (HCT-116 colon) of the same compound?
The TGI was 46.6 µM.

And the TGI (HL-60(TB) leukemia)?
Its TGI is 25.6 µM.

And the TGI (HT29 colon)?
The TGI was 40 µM.

And the TGI (IGROV1 ovarian)?
The TGI was 86.4 µM.

And the TGI (LOX IMVI melanoma)?
The TGI was 32.9 µM.

What about the TGI (MDA-N) of the same compound?
The TGI was 45 µM.

And the TGI (NCI-H226 lung)?
The TGI was 40.9 µM.

And the TGI (OVCAR-8 ovarian)?
Its TGI is 91 µM.

What about the TGI (PC-3 prostate) of the same compound?
Its TGI is over 100 µM.

What about the TGI (RPMI-8226 leukemia) of the same compound?
The TGI was 49.5 µM.

What about the TGI (RXF 393 renal) of the same compound?
The TGI was 44.4 µM.

And the TGI (SK-MEL-5 melanoma)?
Its TGI is 32.4 µM.

And the TGI (SN12C renal)?
Its TGI is 69.4 µM.

What about the TGI (T-47D breast) of the same compound?
Its TGI is 52.5 µM.

And the TGI (TK-10 renal)?
Its TGI is over 100 µM.

And the TGI (U251 CNS)?
Its TGI is over 100 µM.

For O=C1C(N2CCN(c3ccccn3)CC2)=C(Cl)C(=O)c2ncccc21, which TGI (A549 NSCLC) is on record?
The TGI was over 10 µM.

And the TGI (ACHN renal)?
The TGI was 4.91 µM.

What about the TGI (CCRF-CEM leukemia) of the same compound?
Its TGI is 6.28 µM.

What about the TGI (EKVX NSCLC) of the same compound?
Its TGI is over 10 µM.

What about the TGI (HCT-116 colon) of the same compound?
The TGI was 3.13 µM.

What about the TGI (HL-60(TB) leukemia) of the same compound?
The TGI was 0.906 µM.

What about the TGI (HT29 colon) of the same compound?
The TGI was over 6.16 µM.

What about the TGI (IGROV1 ovarian) of the same compound?
Its TGI is over 10 µM.

What about the TGI (LOX IMVI melanoma) of the same compound?
The TGI was 5.35 µM.

And the TGI (MDA-N)?
The TGI was 3.08 µM.

And the TGI (NCI-H226 lung)?
Its TGI is over 10 µM.

And the TGI (OVCAR-8 ovarian)?
Its TGI is over 6.1 µM.

And the TGI (PC-3 prostate)?
The TGI was over 10 µM.

And the TGI (RPMI-8226 leukemia)?
The TGI was 1.87 µM.

And the TGI (RXF 393 renal)?
The TGI was 3.56 µM.

What about the TGI (SK-MEL-5 melanoma) of the same compound?
Its TGI is 3.27 µM.

What about the TGI (SN12C renal) of the same compound?
Its TGI is 3.22 µM.

And the TGI (T-47D breast)?
The TGI was 4.09 µM.

What about the TGI (TK-10 renal) of the same compound?
The TGI was over 6.41 µM.

What about the TGI (U251 CNS) of the same compound?
Its TGI is over 10 µM.

COc1ccc(OC)c(-c2nc3n(c2/C=C2/C(=O)Nc4ccccc42)CCS3)c1 was tested. Which TGI (A549 NSCLC) did it give?
Its TGI is over 100 µM.

And the TGI (ACHN renal)?
Its TGI is over 100 µM.

And the TGI (CCRF-CEM leukemia)?
Its TGI is over 100 µM.

What about the TGI (EKVX NSCLC) of the same compound?
Its TGI is over 100 µM.

What about the TGI (HCT-116 colon) of the same compound?
Its TGI is over 100 µM.

What about the TGI (HL-60(TB) leukemia) of the same compound?
The TGI was over 100 µM.

And the TGI (HT29 colon)?
The TGI was over 100 µM.

What about the TGI (IGROV1 ovarian) of the same compound?
Its TGI is over 100 µM.

What about the TGI (LOX IMVI melanoma) of the same compound?
The TGI was over 100 µM.

And the TGI (MDA-N)?
Its TGI is 44.7 µM.

And the TGI (NCI-H226 lung)?
Its TGI is over 100 µM.

What about the TGI (OVCAR-8 ovarian) of the same compound?
The TGI was over 100 µM.

And the TGI (PC-3 prostate)?
The TGI was over 100 µM.

What about the TGI (RPMI-8226 leukemia) of the same compound?
The TGI was over 100 µM.

And the TGI (RXF 393 renal)?
The TGI was 81.3 µM.

What about the TGI (SK-MEL-5 melanoma) of the same compound?
The TGI was over 100 µM.

What about the TGI (SN12C renal) of the same compound?
The TGI was over 100 µM.

What about the TGI (T-47D breast) of the same compound?
Its TGI is over 100 µM.

What about the TGI (TK-10 renal) of the same compound?
The TGI was over 100 µM.

What about the TGI (U251 CNS) of the same compound?
Its TGI is over 100 µM.

How did the TGI (A549 NSCLC) turn out when CC1(C)CC(C2=NCCO2)CC(C)(C)N1 was run?
The TGI was over 100 µM.

What about the TGI (ACHN renal) of the same compound?
Its TGI is over 100 µM.

And the TGI (CCRF-CEM leukemia)?
The TGI was over 100 µM.

And the TGI (EKVX NSCLC)?
The TGI was over 100 µM.

And the TGI (HCT-116 colon)?
The TGI was over 100 µM.

And the TGI (HL-60(TB) leukemia)?
The TGI was over 100 µM.

And the TGI (HT29 colon)?
Its TGI is over 100 µM.

And the TGI (IGROV1 ovarian)?
Its TGI is over 100 µM.

What about the TGI (LOX IMVI melanoma) of the same compound?
The TGI was over 100 µM.

What about the TGI (MDA-N) of the same compound?
The TGI was over 100 µM.

What about the TGI (NCI-H226 lung) of the same compound?
Its TGI is over 100 µM.

And the TGI (OVCAR-8 ovarian)?
The TGI was over 100 µM.

What about the TGI (PC-3 prostate) of the same compound?
Its TGI is over 100 µM.

And the TGI (RPMI-8226 leukemia)?
The TGI was over 100 µM.

What about the TGI (RXF 393 renal) of the same compound?
The TGI was over 100 µM.

What about the TGI (SK-MEL-5 melanoma) of the same compound?
The TGI was over 100 µM.

And the TGI (SN12C renal)?
Its TGI is over 100 µM.

And the TGI (T-47D breast)?
Its TGI is over 100 µM.

What about the TGI (TK-10 renal) of the same compound?
Its TGI is over 100 µM.

And the TGI (U251 CNS)?
Its TGI is over 100 µM.
